Test systems include T-47D breast; OVCAR-3 ovarian; HCT-116 colon; 786-0 renal; UACC-62 melanoma; MOLT-4 leukemia; U251 CNS; BT-549 breast; A549 NSCLC; HCT-15 colon.
Common to all, as to experiment: NCI tumour cell line growth inhibition, 48 h

Consider seven compounds from PubChem BioAssay (NCI).

Structures are written as SMILES.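 Compound exposure: 48 hours, 5 concentrations, 96-well plates. GI50: concentration for 50% inhibition of growth. At the TGI there is no net growth.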

Regarding `C=CCSSc1ncnc2c1ncn2C1OC(CO)C(O)C1O` (stereo not given), the GI50 in the test with T-47D breast was 0.976 µM; in the test on OVCAR-3 ovarian it was 0.829 µM; in the test on HCT-116 colon, 2.96 µM; in the test with 786-0 renal it was 2.35 µM; with UACC-62 melanoma it was 1.64 µM; with MOLT-4 leukemia it was 1.54 µM. Further, the GI50 was 13.5 µM in the test on U251 CNS, 3.67 µM in the test with BT-549 breast, 21.9 µM in the test on A549 NSCLC and 3.28 µM with HCT-15 colon. For the same compound, the TGI is > 100 µM with T-47D breast; > 32.7 µM in the test on OVCAR-3 ovarian; > 45.4 µM in the test on HCT-116 colon; > 86.9 µM with 786-0 renal; > 100 µM with UACC-62 melanoma; 6.75 µM in the test on MOLT-4 leukemia. Further, the TGI with U251 CNS, with BT-549 breast, in the test with A549 NSCLC and in the test with HCT-15 colon was > 100 µM each time.

For `O=C(NCCCCCCNC(=O)OCc1ccc2c(Cl)cc(Cl)c(O)c2n1)OCc1ccc2c(Cl)cc(Cl)c(O)c2n1`, the GI50 is 1.75 µM with T-47D breast; 0.327 µM in the test on OVCAR-3 ovarian; 0.209 µM in the test with HCT-116 colon; 1.28 µM with 786-0 renal; 1.06 µM in the test with UACC-62 melanoma; 0.688 µM with MOLT-4 leukemia. For the same compound, the GI50 in the test on U251 CNS is 1.44 µM; with BT-549 breast, 0.748 µM; in the test on A549 NSCLC it was 1.55 µM; with HCT-15 colon, 0.317 µM. Moreover, the TGI in the test on T-47D breast was 5.67 µM; in the test with OVCAR-3 ovarian, 1.24 µM; in the test on HCT-116 colon, 0.693 µM; in the test on 786-0 renal it was 2.67 µM; in the test on UACC-62 melanoma, 2.28 µM; with MOLT-4 leukemia, 5.55 µM. Also, the TGI in the test with U251 CNS came to 2.92 µM; with BT-549 breast, 2.17 µM; in the test on A549 NSCLC, 3.62 µM; in the test on HCT-15 colon, 1.02 µM.

For `COc1ccc2nc(-c3cc4c([nH]c5ccccc54)c(-c4ccc(F)c(F)c4)n3)[nH]c2c1`, the GI50 in the test with T-47D breast was 3.76 µM; in the test on OVCAR-3 ovarian, 1.94 µM; in the test on HCT-116 colon, 2.05 µM; in the test with 786-0 renal it was 10.2 µM; in the test with UACC-62 melanoma, 2.76 µM; in the test with MOLT-4 leukemia it was 2.03 µM. The GI50 in the test with U251 CNS was 2.77 µM; in the test with BT-549 breast it was 6.3 µM; in the test with A549 NSCLC, 4.05 µM; in the test on HCT-15 colon, 3.41 µM. In addition, the TGI with T-47D breast stood at 20 µM; in the test with OVCAR-3 ovarian, 4.12 µM; in the test on HCT-116 colon, 4.11 µM; with 786-0 renal, 24.9 µM; in the test with UACC-62 melanoma, 10.2 µM; in the test on MOLT-4 leukemia it was 7.39 µM. The TGI with U251 CNS is 10.2 µM; in the test with BT-549 breast it was 22.5 µM; in the test on A549 NSCLC, 17.6 µM; in the test with HCT-15 colon, 16.7 µM.

As for `Cc1nn(C)c2cc(N(C)c3ccnc(Nc4cccc(S(N)(=O)=O)c4)n3)ccc12`, the GI50 was > 7.8 µM with T-47D breast; 8.19 µM with OVCAR-3 ovarian; 7.43 µM with HCT-116 colon; 9.36 µM in the test on 786-0 renal; 5.94 µM in the test with UACC-62 melanoma; 6.62 µM in the test on MOLT-4 leukemia. Besides, the GI50 with U251 CNS was 10.8 µM; in the test with BT-549 breast, 8.69 µM; in the test on A549 NSCLC it was 8.55 µM; with HCT-15 colon, 9.02 µM. Moreover, the TGI is > 21.1 µM in the test on T-47D breast; > 25 µM with OVCAR-3 ovarian; > 25 µM in the test with HCT-116 colon; > 25 µM in the test with 786-0 renal; > 22.7 µM in the test with UACC-62 melanoma; > 23.8 µM in the test with MOLT-4 leukemia. In addition, the TGI was > 25 µM in the test on U251 CNS, > 23.5 µM in the test with BT-549 breast, > 25 µM with A549 NSCLC and > 25 µM in the test with HCT-15 colon.

Turning to `CCOCCOC[C@H]1CCCN(c2ccnc3sc(C(N)=O)c(N)c23)C1`, the GI50 was 3.9 µM with T-47D breast; 23.6 µM with OVCAR-3 ovarian; 14.4 µM with HCT-116 colon; > 100 µM in the test on 786-0 renal; 6.51 µM with UACC-62 melanoma; 10.1 µM in the test on MOLT-4 leukemia. Moreover, the GI50 with U251 CNS was > 100 µM; with BT-549 breast, 9.35 µM; in the test with A549 NSCLC it was 77.4 µM; with HCT-15 colon, > 100 µM. In addition, the TGI in the test on T-47D breast, in the test on OVCAR-3 ovarian, with HCT-116 colon, in the test with 786-0 renal, in the test with UACC-62 melanoma and with MOLT-4 leukemia was > 100 µM in each case. The TGI in the test with U251 CNS, in the test with BT-549 breast, with A549 NSCLC and in the test on HCT-15 colon was > 100 µM each time.

For `Cc1nc2sc(C(=O)Nc3cccc(Br)c3)c(N)c2cc1C(O)c1ccccc1` (stereo not given), the GI50 in the test on T-47D breast is 0.665 µM; in the test with OVCAR-3 ovarian, 0.392 µM; in the test with HCT-116 colon, 0.438 µM; in the test on 786-0 renal it was 1.6 µM; with UACC-62 melanoma it was 0.622 µM; in the test on MOLT-4 leukemia it was 0.58 µM. In addition, the GI50 in the test with U251 CNS is 0.52 µM; with BT-549 breast it was 1.75 µM; with A549 NSCLC it was 0.9 µM; with HCT-15 colon, 0.403 µM. The TGI in the test with T-47D breast is 31 µM; with OVCAR-3 ovarian, 6.23 µM; with HCT-116 colon it was 16.2 µM; in the test on 786-0 renal, 18.4 µM; in the test on UACC-62 melanoma it was 16.4 µM; in the test with MOLT-4 leukemia, > 100 µM. The TGI in the test on U251 CNS is > 70.9 µM; in the test on BT-549 breast, 19.9 µM; in the test with A549 NSCLC it was > 71.3 µM; in the test with HCT-15 colon, 17.3 µM.

On to `COc1ccc(C2CC(=O)c3c(O)c(OC)c(OC)c(OC)c3O2)cc1O` (stereo not given), for which the GI50 was 19.2 µM in the test with T-47D breast; 0.0627 µM with OVCAR-3 ovarian; 0.103 µM in the test on HCT-116 colon; 1.64 µM in the test with 786-0 renal; 0.504 µM in the test with UACC-62 melanoma; 0.105 µM in the test on MOLT-4 leukemia. Moreover, the GI50 in the test on U251 CNS is 0.191 µM; in the test on BT-549 breast, 0.0745 µM; with A549 NSCLC, 0.817 µM; in the test with HCT-15 colon it was 0.0459 µM. For the same compound, the TGI was 77.9 µM in the test with T-47D breast; 0.749 µM in the test on OVCAR-3 ovarian; > 100 µM with HCT-116 colon; > 100 µM in the test with 786-0 renal; > 73.7 µM with UACC-62 melanoma; > 100 µM in the test on MOLT-4 leukemia. Also, the TGI is > 100 µM in the test with U251 CNS, 31.2 µM in the test on BT-549 breast, > 100 µM in the test on A549 NSCLC and > 100 µM in the test on HCT-15 colon.
